According to ChEMBL document CHEMBL1201862, “PubChem BioAssay data set” (2004):
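Cells were grown in 96-well plates and exposed to each compound for 48 hours at five concentrations; endpoints were interpolated linearly between bracketing concentrations, or set to the highest concentration if not reached. GI50 marks 50% less growth.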 Activity calls are given as the source filed them. No stated cut-off is given here; in the data, active = GI50 up to about 1.1 µM and inactive = higher.

Tests used:
Experiment in all cases: NCI-60 cell line screen, 48 h
DLD-1 = tested on: DLD-1
NCI-H460 = tested on: NCI-H460
HCT-116 = tested on: HCT-116
LXFL 529 = tested on: LXFL 529
SK-MEL-5 = tested on: SK-MEL-5
CCRF-CEM = tested on: CCRF-CEM
UACC-257 = tested on: UACC-257
HL-60 = tested on: HL-60
NCI-H226 = tested on: NCI-H226
A498 = tested on: A498
TK-10 = tested on: TK-10
UO-31 = tested on: UO-31
COLO 205 = tested on: COLO 205
XF498 = tested on: XF498
NCI-H23 = tested on: NCI-H23
HT-29 = tested on: HT-29
MOLT-4 = tested on: MOLT-4
HOP-92 = tested on: HOP-92
M14 = tested on: M14
DMS-114 = tested on: DMS-114
HCT-15 = tested on: HCT-15
ACHN = tested on: ACHN
SK-MEL-28 = tested on: SK-MEL-28
RXF 631 = tested on: RXF 631
SK-OV-3 = tested on: SK-OV-3
LOX IMVI = tested on: LOX IMVI
U-251 = tested on: U-251
EKVX = tested on: EKVX
M19-MEL = tested on: M19-MEL
DMS-273 = tested on: DMS-273
OVCAR-4 = tested on: OVCAR-4
SN12C = tested on: SN12C
UACC-62 = tested on: UACC-62
OVCAR-5 = tested on: OVCAR-5
SF-539 = tested on: SF-539
SF-295 = tested on: SF-295
HCC 2998 = tested on: HCC 2998
HOP-62 = tested on: HOP-62
RPMI-8226 = tested on: RPMI-8226
RXF 393 = tested on: RXF 393
A549 = tested on: A549
OVCAR-3 = tested on: OVCAR-3
786-0 = tested on: 786-0
SK-MEL-2 = tested on: SK-MEL-2
KM-20L2 = tested on: KM-20L2
SF-268 = tested on: SF-268
IGROV-1 = tested on: IGROV-1
KM12 = tested on: KM12
SW-620 = tested on: SW-620
K562 = tested on: K562
SNB-75 = tested on: SNB-75
Malme-3M = tested on: Malme-3M
NCI-H522 = tested on: NCI-H522
OVCAR-8 = tested on: OVCAR-8
SNB-19 = tested on: SNB-19
HOP-18 = tested on: HOP-18
CAKI-1 = tested on: CAKI-1
SR = tested on: SR
SNB-78 = tested on: SNB-78

`O=C1C=CC2(C=C1)CCNC1=C2C(=O)c2ccccc2C1=O` was tested, and the GI50 (DLD-1) was > 100 µM (inactive), the GI50 (NCI-H460) was > 100 µM (inactive) and the GI50 (HCT-116) was > 100 µM (inactive). For the same molecule, the GI50 (LXFL 529) was > 100 µM (inactive), the GI50 (SK-MEL-5) was 56.9 µM (inactive) and the GI50 (CCRF-CEM) was > 100 µM (inactive). For the same molecule, the GI50 (UACC-257) was 50 µM (inactive), the GI50 (HL-60) was > 100 µM (inactive) and the GI50 (NCI-H226) was > 100 µM (inactive). For the same molecule, the GI50 (A498) was > 100 µM (inactive), the GI50 (TK-10) was > 100 µM (inactive) and the GI50 (UO-31) was > 100 µM (inactive). For the same molecule, the GI50 (COLO 205) was > 100 µM (inactive), the GI50 (XF498) was > 100 µM (inactive) and the GI50 (NCI-H23) was > 100 µM (inactive). The GI50 (HT-29) was > 100 µM (inactive), the GI50 (MOLT-4) was > 100 µM (inactive) and the GI50 (HOP-92) was > 100 µM (inactive). For the same molecule, the GI50 (M14) was > 100 µM (inactive), the GI50 (DMS-114) was > 100 µM (inactive) and the GI50 (HCT-15) was greater than 100 µM. The GI50 (ACHN) was > 100 µM (inactive), the GI50 (SK-MEL-28) was > 100 µM (inactive) and the GI50 (RXF 631) was > 100 µM (inactive). For the same molecule, the GI50 (SK-OV-3) was > 100 µM (inactive), the GI50 (LOX IMVI) was > 100 µM (inactive) and the GI50 (U-251) was > 100 µM (inactive). The GI50 (EKVX) was > 100 µM (inactive), the GI50 (M19-MEL) was 32.5 µM (inactive) and the GI50 (DMS-273) was > 100 µM (inactive). For the same molecule, the GI50 (OVCAR-4) was > 100 µM (inactive), the GI50 (SN12C) was > 100 µM (inactive) and the GI50 (UACC-62) was > 100 µM (inactive). For the same molecule, the GI50 (OVCAR-5) was > 100 µM (inactive), the GI50 (SF-539) was > 100 µM (inactive) and the GI50 (SF-295) was > 100 µM (inactive). The GI50 (HCC 2998) was > 100 µM (inactive), the GI50 (HOP-62) was > 100 µM (inactive) and the GI50 (RPMI-8226) was > 100 µM (inactive). The GI50 (RXF 393) was > 100 µM (inactive), the GI50 (A549) was > 100 µM (inactive) and the GI50 (OVCAR-3) was 28.5 µM (inactive). For the same molecule, the GI50 (786-0) was > 100 µM (inactive), the GI50 (SK-MEL-2) was > 100 µM (inactive) and the GI50 (KM-20L2) was > 100 µM (inactive). For the same molecule, the GI50 (SF-268) was > 100 µM (inactive), the GI50 (IGROV-1) was > 100 µM (inactive) and the GI50 (KM12) was > 100 µM (inactive). For the same molecule, the GI50 (SW-620) was > 100 µM (inactive), the GI50 (K562) was > 100 µM (inactive) and the GI50 (SNB-75) was 30.8 µM (inactive). For the same molecule, the GI50 (Malme-3M) was > 100 µM (inactive), the GI50 (NCI-H522) was > 100 µM (inactive) and the GI50 (OVCAR-8) was > 100 µM (inactive).
For `CN(CCO)c1nc(=O)c2c(n1C1OC(CO)C(O)C(O)C1O)CCCC2` (configuration not stated), the GI50 (DLD-1) was > 100 µM (inactive), the GI50 (NCI-H460) was > 100 µM (inactive) and the GI50 (HCT-116) was > 100 µM (inactive). For the same molecule, the GI50 (LXFL 529) was > 100 µM (inactive), the GI50 (SK-MEL-5) was > 100 µM (inactive) and the GI50 (CCRF-CEM) was > 100 µM (inactive). For the same molecule, the GI50 (UACC-257) was > 100 µM (inactive), the GI50 (HL-60) was > 100 µM (inactive) and the GI50 (SNB-19) was > 100 µM (inactive). For the same molecule, the GI50 (NCI-H226) was > 100 µM (inactive), the GI50 (TK-10) was > 100 µM (inactive) and the GI50 (UO-31) was > 100 µM (inactive). The GI50 (COLO 205) was > 100 µM (inactive), the GI50 (XF498) was > 100 µM (inactive) and the GI50 (NCI-H23) was > 100 µM (inactive). For the same molecule, the GI50 (HT-29) was > 100 µM (inactive), the GI50 (MOLT-4) was > 100 µM (inactive) and the GI50 (HOP-18) was > 100 µM (inactive). The GI50 (HOP-92) was > 100 µM (inactive), the GI50 (M14) was > 100 µM (inactive) and the GI50 (DMS-114) was > 100 µM (inactive). For the same molecule, the GI50 (HCT-15) was greater than 100 µM, the GI50 (ACHN) was > 100 µM (inactive) and the GI50 (SK-MEL-28) was > 100 µM (inactive). For the same molecule, the GI50 (SK-OV-3) was > 100 µM (inactive), the GI50 (LOX IMVI) was > 100 µM (inactive) and the GI50 (U-251) was > 100 µM (inactive). The GI50 (EKVX) was > 100 µM (inactive), the GI50 (M19-MEL) was > 100 µM (inactive) and the GI50 (DMS-273) was > 100 µM (inactive). For the same molecule, the GI50 (SN12C) was > 100 µM (inactive), the GI50 (UACC-62) was > 100 µM (inactive) and the GI50 (OVCAR-5) was > 100 µM (inactive). For the same molecule, the GI50 (SF-539) was > 100 µM (inactive), the GI50 (CAKI-1) was > 100 µM (inactive) and the GI50 (SF-295) was > 100 µM (inactive). The GI50 (SR) was > 100 µM (inactive), the GI50 (HCC 2998) was > 100 µM (inactive) and the GI50 (HOP-62) was > 100 µM (inactive). For the same molecule, the GI50 (RPMI-8226) was > 100 µM (inactive), the GI50 (RXF 393) was > 100 µM (inactive) and the GI50 (A549) was > 100 µM (inactive). For the same molecule, the GI50 (OVCAR-3) was > 100 µM (inactive), the GI50 (786-0) was > 100 µM (inactive) and the GI50 (SK-MEL-2) was > 100 µM (inactive). The GI50 (KM-20L2) was > 100 µM (inactive), the GI50 (SF-268) was > 100 µM (inactive) and the GI50 (IGROV-1) was > 100 µM (inactive). For the same molecule, the GI50 (KM12) was > 100 µM (inactive), the GI50 (SW-620) was > 100 µM (inactive) and the GI50 (K562) was > 100 µM (inactive). For the same molecule, the GI50 (SNB-75) was 62.5 µM (inactive), the GI50 (Malme-3M) was > 100 µM (inactive) and the GI50 (NCI-H522) was > 100 µM (inactive). The GI50 (SNB-78) was > 100 µM (inactive) and the GI50 (OVCAR-8) was > 100 µM (inactive).
With `COCN1C(=O)C2CC(/C=C/C(N)=O)=CN2C(=O)c2ccccc21` (configuration not stated) the GI50 (DLD-1) was > 100 µM (inactive), the GI50 (NCI-H460) was > 100 µM (inactive) and the GI50 (HCT-116) was > 100 µM (inactive). For the same molecule, the GI50 (LXFL 529) was > 100 µM (inactive), the GI50 (SK-MEL-5) was > 100 µM (inactive) and the GI50 (CCRF-CEM) was > 100 µM (inactive). The GI50 (HL-60) was > 100 µM (inactive), the GI50 (SNB-19) was > 100 µM (inactive) and the GI50 (NCI-H226) was > 100 µM (inactive). For the same molecule, the GI50 (TK-10) was > 100 µM (inactive), the GI50 (COLO 205) was > 100 µM (inactive) and the GI50 (XF498) was > 100 µM (inactive). For the same molecule, the GI50 (NCI-H23) was > 100 µM (inactive), the GI50 (HT-29) was > 100 µM (inactive) and the GI50 (MOLT-4) was > 100 µM (inactive). The GI50 (HOP-18) was > 100 µM (inactive), the GI50 (M14) was > 100 µM (inactive) and the GI50 (DMS-114) was > 100 µM (inactive). For the same molecule, the GI50 (SK-MEL-28) was > 100 µM (inactive), the GI50 (SK-OV-3) was > 100 µM (inactive) and the GI50 (LOX IMVI) was > 100 µM (inactive). For the same molecule, the GI50 (U-251) was > 100 µM (inactive), the GI50 (EKVX) was > 100 µM (inactive) and the GI50 (M19-MEL) was > 100 µM (inactive). For the same molecule, the GI50 (DMS-273) was > 100 µM (inactive), the GI50 (OVCAR-4) was > 100 µM (inactive) and the GI50 (SN12C) was > 100 µM (inactive). The GI50 (UACC-62) was > 100 µM (inactive), the GI50 (SF-539) was > 100 µM (inactive) and the GI50 (SF-295) was > 100 µM (inactive). The GI50 (HCC 2998) was > 100 µM (inactive), the GI50 (HOP-62) was > 100 µM (inactive) and the GI50 (RPMI-8226) was > 100 µM (inactive). The GI50 (RXF 393) was > 100 µM (inactive), the GI50 (A549) was > 100 µM (inactive) and the GI50 (OVCAR-3) was > 100 µM (inactive). For the same molecule, the GI50 (786-0) was > 100 µM (inactive), the GI50 (KM-20L2) was > 100 µM (inactive) and the GI50 (SF-268) was > 100 µM (inactive). The GI50 (IGROV-1) was > 100 µM (inactive), the GI50 (KM12) was > 100 µM (inactive) and the GI50 (SW-620) was > 100 µM (inactive). For the same molecule, the GI50 (K562) was > 100 µM (inactive), the GI50 (SNB-75) was > 100 µM (inactive) and the GI50 (NCI-H522) was > 100 µM (inactive). The GI50 (SNB-78) was > 100 µM (inactive) and the GI50 (OVCAR-8) was > 100 µM (inactive).
